# Test system: MCF-7 breast cancer cells
# Experiment: Microarray gene expression analysis (Agilent whole human genome 4 x 44K; compound vs DMSO, LIMMA log2 fold change)
# Assay type: cell-based
# Settings: Apoptosis genes
smiles,measurement,setting,value
Oc1cccc(-c2nc(N3CCOCC3)c3oc4ncccc4c3n2)c1 [PI-103],KALRN log2FC,Gene 8997,0.194
same,SOCS3 log2FC,Gene 9021,-0.840
same,BRSK2 log2FC,Gene 9024,-0.160
same,UBE2M log2FC,Gene 9040,-0.417
same,SART1 log2FC,Gene 9092,-0.00235
same,DNAJA3 log2FC,Gene 9093,0.121
same,RABEP1 log2FC,Gene 9135,0.492
same,ARHGEF2 log2FC,Gene 9181,-0.509
same,DEDD log2FC,Gene 9191,-0.033
same,AURKB log2FC,Gene 9212,-0.231
same,FAIM3 log2FC,Gene 9214,-0.530
same,DLG5 log2FC,Gene 9231,-0.212
same,PNMA1 log2FC,Gene 9240,0.459
same,NOG log2FC,Gene 9241,-0.308
same,CRLF1 log2FC,Gene 9244,0.144
same,STK17B log2FC,Gene 9262,0.429
same,STK17A log2FC,Gene 9263,0.011
same,BCL7C log2FC,Gene 9274,-0.197
same,TAOK2 log2FC,Gene 9344,-0.249
same,SLIT2 log2FC,Gene 9353,0.341
same,SLC9A3R1 log2FC,Gene 9368,-0.528
same,TJP2 log2FC,Gene 9414,0.196
same,NTN1 log2FC,Gene 9423,-0.198
same,ITM2B log2FC,Gene 9445,0.317
same,AIM2 log2FC,Gene 9447,-0.062
same,LY86 log2FC,Gene 9450,-0.203
same,EIF2AK3 log2FC,Gene 9451,0.495
same,HAND2 log2FC,Gene 9464,-0.691
same,ATG5 log2FC,Gene 9474,-0.728
same,ROCK2 log2FC,Gene 9475,0.195
same,MAPK8IP1 log2FC,Gene 9479,0.085
same,SLC25A27 log2FC,Gene 9481,-0.081
same,PSMF1 log2FC,Gene 9491,-0.344
same,LITAF log2FC,Gene 9516,-0.833
same,EEF1E1 log2FC,Gene 9521,0.110
same,BAG4 log2FC,Gene 9530,0.152
same,BAG3 log2FC,Gene 9531,-0.812
same,EI24 log2FC,Gene 9538,-0.583
same,BCAR1 log2FC,Gene 9564,-0.480
same,BRE log2FC,Gene 9577,-0.205
same,RNF7 log2FC,Gene 9616,-0.244
same,TRAF4 log2FC,Gene 9618,-0.924
same,AATK log2FC,Gene 9625,1.492
same,IKBKE log2FC,Gene 9641,-0.667
same,PPM1F log2FC,Gene 9647,-0.302
same,RAPGEF2 log2FC,Gene 9693,0.948
same,ESPL1 log2FC,Gene 9700,0.721
same,HERPUD1 log2FC,Gene 9709,0.170
same,SLK log2FC,Gene 9748,0.857
same,BCLAF1 log2FC,Gene 9774,0.632
same,KIAA0141 log2FC,Gene 9812,0.468
same,RB1CC1 log2FC,Gene 9821,1.484
same,ARHGEF11 log2FC,Gene 9826,-0.060
same,ARHGEF17 log2FC,Gene 9828,0.506
same,MELK log2FC,Gene 9833,0.254
same,PSMD6 log2FC,Gene 9861,0.158
same,ARNT2 log2FC,Gene 9915,0.025
same,THOC1 log2FC,Gene 9984,0.375
same,CASP8AP2 log2FC,Gene 9994,0.614
same,SRA1 log2FC,Gene 10011,-0.916
same,PDCD6IP log2FC,Gene 10015,0.603
same,PDCD6 log2FC,Gene 10016,-0.491
same,BCL2L11 log2FC,Gene 10018,0.088
same,PARP2 log2FC,Gene 10038,0.326
same,DNAJB6 log2FC,Gene 10049,0.183
same,DNM1L log2FC,Gene 10059,0.444
same,PDCD7 log2FC,Gene 10081,0.098
same,PPIF log2FC,Gene 10105,-1.136
same,FEM1B log2FC,Gene 10116,-0.374
same,BCAP31 log2FC,Gene 10134,-0.357
same,RBM5 log2FC,Gene 10181,0.638
same,RNF41 log2FC,Gene 10193,0.278
same,PSME3 log2FC,Gene 10197,-1.222
same,DHRS2 log2FC,Gene 10202,0.281
same,TOPORS log2FC,Gene 10210,0.598
same,PSMD14 log2FC,Gene 10213,0.153
same,SPRY2 log2FC,Gene 10253,-0.930
same,NET1 log2FC,Gene 10276,0.503
same,UBE4B log2FC,Gene 10277,-0.565
same,SAP18 log2FC,Gene 10284,0.198
same,TRAIP log2FC,Gene 10293,0.566
same,MAEA log2FC,Gene 10296,-0.106
same,PAK4 log2FC,Gene 10298,-0.420
same,RTN3 log2FC,Gene 10313,-0.192
same,CITED2 log2FC,Gene 10370,2.312
same,SEMA3A log2FC,Gene 10371,0.050
same,DLC1 log2FC,Gene 10395,-1.010
same,GNB2L1 log2FC,Gene 10399,-0.033
same,YAP1 log2FC,Gene 10413,0.172
same,CFDP1 log2FC,Gene 10428,0.411
same,C1D log2FC,Gene 10438,0.246
same,ACAA2 log2FC,Gene 10449,0.115
same,VAV3 log2FC,Gene 10451,2.272
same,STK25 log2FC,Gene 10494,0.213
same,SEMA4D log2FC,Gene 10507,0.274
same,MYBBP1A log2FC,Gene 10514,-0.303
same,CIB1 log2FC,Gene 10519,-0.082
same,ATG7 log2FC,Gene 10533,-0.414
same,HTATIP2 log2FC,Gene 10553,0.204
same,ERN2 log2FC,Gene 10595,-0.680
same,RBCK1 log2FC,Gene 10616,-0.315
same,STAMBP log2FC,Gene 10617,0.275
same,IVNS1ABP log2FC,Gene 10625,0.167
same,TXNIP log2FC,Gene 10628,2.206
same,RRAGA log2FC,Gene 10670,-0.315
same,PNMA2 log2FC,Gene 10687,-0.058
same,CHL1 log2FC,Gene 10752,0.036
same,NES log2FC,Gene 10763,-0.277
same,PLK2 log2FC,Gene 10769,-0.927
same,ZMYND11 log2FC,Gene 10771,0.395
same,NEK6 log2FC,Gene 10783,-0.675
same,NCKAP1 log2FC,Gene 10787,0.619
same,ZNF268 log2FC,Gene 10795,0.176
same,PPP1R13L log2FC,Gene 10848,0.642
same,LILRB1 log2FC,Gene 10859,-0.213
same,MRPS30 log2FC,Gene 10884,0.033
same,PROKR1 log2FC,Gene 10887,-0.254
same,PPARGC1A log2FC,Gene 10891,0.154
same,MALT1 log2FC,Gene 10892,-0.458
same,JTB log2FC,Gene 10899,-0.072
same,BLCAP log2FC,Gene 10904,-0.472
same,EDAR log2FC,Gene 10913,-0.571
same,RNPS1 log2FC,Gene 10921,-0.284
same,FASTK log2FC,Gene 10922,-0.187
same,PRDX3 log2FC,Gene 10935,0.328
same,MLLT11 log2FC,Gene 10962,-0.868
same,YWHAQ log2FC,Gene 10971,0.144
same,IL24 log2FC,Gene 11009,-0.212
same,RIPK3 log2FC,Gene 11035,-0.030
same,PIM2 log2FC,Gene 11040,-0.544
same,DIDO1 log2FC,Gene 11083,-0.398
same,FAF1 log2FC,Gene 11124,0.215
same,CAPN10 log2FC,Gene 11132,-0.148
same,NISCH log2FC,Gene 11188,0.538
same,CHEK2 log2FC,Gene 11200,0.111
same,AKAP13 log2FC,Gene 11214,-0.354
same,DDX20 log2FC,Gene 11218,0.280
same,PDCD10 log2FC,Gene 11235,0.466
same,GABARAP log2FC,Gene 11337,0.401
same,ATF5 log2FC,Gene 22809,-1.254
same,PHLDA1 log2FC,Gene 22822,-2.154
same,CARD8 log2FC,Gene 22900,0.156
same,SNW1 log2FC,Gene 22938,0.538
same,TRIM32 log2FC,Gene 22954,-0.315
same,ACIN1 log2FC,Gene 22985,-0.228
same,TRIM35 log2FC,Gene 23087,0.205
same,KIF1B log2FC,Gene 23095,0.163
same,PSME4 log2FC,Gene 23198,-0.072
same,ARHGEF9 log2FC,Gene 23229,0.137
same,PACS2 log2FC,Gene 23241,-0.041
same,MCF2L log2FC,Gene 23263,0.306
same,TRIM2 log2FC,Gene 23321,0.862
same,ARHGEF12 log2FC,Gene 23365,0.170
same,PPP1R13B log2FC,Gene 23368,0.064
same,NCSTN log2FC,Gene 23385,0.292
same,ADNP log2FC,Gene 23394,0.175
same,SIRT1 log2FC,Gene 23411,1.169

# Source: PMC4303209, “A novel phosphatidylinositol 3-kinase (PI3K) inhibitor directs a potent FOXO-dependent, p53-independent cell cycle arrest phenotype characterized by the differential induction of a subset of FOXO-regulated genes” (Breast Cancer Research : BCR, 2014)
